Test results reported in ChEMBL document CHEMBL1201862, “PubChem BioAssay data set” (2004).
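Briefly, cells in 96-well plates were exposed to five compound concentrations for 48 h, and endpoints were estimated by linear interpolation. GI50 = concentration required for 50% inhibition of growth.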 Active and inactive are the calls of the source. Rule as the data show it: active = GI50 up to about 1.1 µM and inactive = higher.

How the values were obtained:
Assay in all cases: NCI tumour cell line growth inhibition, 48 h
BT-549 = system: BT-549
NCI-H226 = system: NCI-H226
MDA-N = system: MDA-N
PC-3 = system: PC-3
UACC-62 = system: UACC-62
SF-268 = system: SF-268
Malme-3M = system: Malme-3M
U-251 = system: U-251
OVCAR-8 = system: OVCAR-8
M14 = system: M14
SR = system: SR
HCT-116 = system: HCT-116
NCI-H23 = system: NCI-H23
MDA-MB-231 = system: MDA-MB-231
EKVX = system: EKVX
HOP-92 = system: HOP-92
MCF7 = system: MCF7
SW-620 = system: SW-620
786-0 = system: 786-0

Measured: GI50

C#CCOC(=O)C(=[N+]=[N-])C(=O)CC(C)C
inactive: BT-549 > 10 µM | NCI-H226 > 10 µM | MDA-N > 10 µM | PC-3 > 10 µM | UACC-62 > 10 µM | SF-268 > 10 µM | Malme-3M > 10 µM | U-251 > 10 µM | OVCAR-8 > 10 µM | M14 > 10 µM | SR > 10 µM | HCT-116 > 10 µM | NCI-H23 > 10 µM | MDA-MB-231 > 10 µM | EKVX > 10 µM | HOP-92 > 10 µM | MCF7 > 10 µM | SW-620 > 10 µM | 786-0 > 10 µM

CC[C@@H]1CN(C)[C@H]2Cc3c([nH]c4ccccc34)C(=O)C[C@H]1C2C(=O)OC (some centres undefined)
inactive: BT-549 > 100 µM | NCI-H226 > 100 µM | MDA-N > 100 µM | PC-3 > 100 µM | UACC-62 > 100 µM | SF-268 > 100 µM | Malme-3M > 100 µM | U-251 > 100 µM | OVCAR-8 > 100 µM | M14 > 100 µM | SR > 100 µM | HCT-116 > 100 µM | NCI-H23 > 100 µM | MDA-MB-231 > 100 µM | EKVX > 100 µM | HOP-92 > 100 µM | MCF7 > 100 µM | SW-620 > 100 µM | 786-0 > 100 µM

Nc1ccc(S(=O)(=O)Nc2nc3ccccc3nc2Nc2ccc(S(N)(=O)=O)cc2)cc1
inactive: BT-549 20.2 µM | NCI-H226 56.4 µM | MDA-N 56.6 µM | PC-3 34.9 µM | UACC-62 30.8 µM | SF-268 17.5 µM | Malme-3M 22.8 µM | U-251 27.7 µM | OVCAR-8 45.4 µM | M14 36.3 µM | SR 37 µM | HCT-116 38.5 µM | NCI-H23 20.5 µM | MDA-MB-231 53.8 µM | EKVX 75.7 µM | HOP-92 17.6 µM | MCF7 57.8 µM | SW-620 36.9 µM | 786-0 58.3 µM

O=C(O)C(Br)C(Br)C(=O)O (centres undefined)
inactive: BT-549 > 100 µM | NCI-H226 > 100 µM | MDA-N > 100 µM | PC-3 > 100 µM | UACC-62 > 100 µM | SF-268 > 100 µM | Malme-3M > 100 µM | U-251 > 100 µM | OVCAR-8 > 100 µM | M14 > 100 µM | SR 28.2 µM | HCT-116 > 100 µM | NCI-H23 > 100 µM | MDA-MB-231 > 100 µM | EKVX > 100 µM | HOP-92 > 100 µM | MCF7 > 100 µM | SW-620 > 100 µM | 786-0 > 100 µM

O=c1c2ccccc2[nH]c(=S)n1-c1ccc(/N=N/c2cccc3cc(O)ccc23)cc1
inactive: BT-549 > 100 µM | NCI-H226 > 100 µM | MDA-N > 100 µM | PC-3 35.1 µM | UACC-62 49.2 µM | SF-268 > 100 µM | Malme-3M > 100 µM | U-251 54.6 µM | OVCAR-8 > 100 µM | M14 > 100 µM | SR 94.6 µM | HCT-116 > 100 µM | NCI-H23 > 100 µM | MDA-MB-231 48.4 µM | EKVX > 100 µM | HOP-92 > 100 µM | MCF7 27 µM | SW-620 > 100 µM | 786-0 65.5 µM

CC(C)(C)c1cc2c(O)c(c1)Cc1cc(C(C#N)(Cc3ccc4ccccc4c3)Cc3ccc4ccccc4c3)cc(c1O)Cc1cc(C(C)(C)C)cc(c1O)Cc1cc(C(C#N)(Cc3ccc4ccccc4c3)Cc3ccc4ccccc4c3)cc(c1O)C2
inactive: BT-549 > 100 µM | NCI-H226 > 100 µM | MDA-N > 100 µM | PC-3 > 100 µM | UACC-62 > 100 µM | SF-268 > 100 µM | Malme-3M > 100 µM | U-251 67 µM | OVCAR-8 > 100 µM | M14 > 100 µM | SR 60.5 µM | HCT-116 > 100 µM | NCI-H23 > 100 µM | MDA-MB-231 > 100 µM | EKVX > 100 µM | HOP-92 > 100 µM | MCF7 > 100 µM | SW-620 > 100 µM | 786-0 > 100 µM

Nc1c(C(=O)c2ccc(Cl)cc2)[nH]c(Nc2ccc(Cl)cc2)c1C(=S)Nc1ccccc1
inactive: BT-549 2.93 µM | NCI-H226 3.64 µM | MDA-N 6.76 µM | PC-3 10.6 µM | UACC-62 13.4 µM | SF-268 4.22 µM | Malme-3M 8.34 µM | U-251 2.97 µM | OVCAR-8 3.12 µM | M14 11.9 µM | SR 1.92 µM | HCT-116 3.7 µM | NCI-H23 3.3 µM | MDA-MB-231 4.55 µM | EKVX 4.9 µM | HOP-92 5.21 µM | MCF7 4.41 µM | SW-620 6.43 µM | 786-0 2.9 µM

[O-][S+]1SC(=S)C2C=CC=NC21 (centres undefined)
inactive: BT-549 19 µM | NCI-H226 22.2 µM | MDA-N 14.7 µM | PC-3 16.8 µM | UACC-62 21.3 µM | SF-268 19.5 µM | Malme-3M 17.3 µM | U-251 18 µM | OVCAR-8 25 µM | M14 15.3 µM | SR 11.5 µM | HCT-116 13.7 µM | NCI-H23 18.6 µM | MDA-MB-231 18.7 µM | EKVX 13.2 µM | HOP-92 15.8 µM | MCF7 17.5 µM | SW-620 > 100 µM | 786-0 14.5 µM

CC(=O)Oc1ccc2c(c1)CC[C@@H]1C2[C@@H](O[N+](=O)[O-])C[C@@]2(C)C1CC[C@@H]2O (some centres undefined)
inactive: BT-549 62.4 µM | NCI-H226 48.8 µM | MDA-N 5.83 µM | PC-3 47.3 µM | UACC-62 26.5 µM | SF-268 32.6 µM | Malme-3M 32.1 µM | U-251 27.6 µM | OVCAR-8 31.3 µM | M14 28.3 µM | SR 16.4 µM | HCT-116 29.4 µM | NCI-H23 42.9 µM | MDA-MB-231 39.1 µM | EKVX 16.8 µM | HOP-92 > 88.1 µM | MCF7 41 µM | SW-620 35.5 µM | 786-0 33.8 µM

O=C(O)CCCc1ccc2ccc3ccccc3c2c1
inactive: BT-549 69 µM | NCI-H226 78.2 µM | MDA-N > 100 µM | PC-3 34.8 µM | UACC-62 38.3 µM | SF-268 66.2 µM | Malme-3M 39.4 µM | U-251 71.1 µM | OVCAR-8 71.9 µM | M14 > 100 µM | SR 51.9 µM | HCT-116 89.1 µM | NCI-H23 > 100 µM | MDA-MB-231 73.1 µM | EKVX > 100 µM | HOP-92 72.6 µM | MCF7 > 100 µM | 786-0 > 100 µM
